Results published in patent publication US11400058B2, “Intravenous formulations of coenzyme Q10 (CoQ10) and methods of use thereof” (Berg LLC, priority 2010, dated 2022).
Marks after values point to notes of the source that are not given here.

Experiment: 4-week repeat-dose toxicology study in rats with 2-week recovery (Study 20000328)
[1] = 250 mg/kg F, end of dosing, animals of 10
[2] = 250 mg/kg F, end of recovery, animals of 5
[3] = 250 mg/kg M, end of dosing, animals of 10
[4] = 250 mg/kg M, end of recovery, animals of 5

For COC1=C(OC)C(=O)C(C/C=C(\C)CC/C=C(\C)CC/C=C(\C)CC/C=C(\C)CC/C=C(\C)CC/C=C(\C)CC/C=C(\C)CC/C=C(\C)CC/C=C(\C)CCC=C(C)C)=C(C)C1=O [CoQ10, Coenzyme Q10], the “Spleen Histiocytic Infiltration” value [1] was 10, the “Spleen Histiocytic Infiltration, Marked” value [1] was 2 and the “Spleen Histiocytic Infiltration, Mild” value [1] was 1. For the same molecule, the “Spleen Histiocytic Infiltration, Moderate” value [1] was 7, the ALT (250 mg/kg F, end of recovery) was 63* IU/L and the APPT (250 mg/kg F, end of recovery) was 14.7 s. The AST (250 mg/kg F, end of recovery) was 153* IU/L, the “Body Weight, percent difference from controls” value (shortened to “Body Weight, percent difference”) (250 mg/kg F, end of recovery) was −12.6% and the “Food Consumption, percent difference from controls” value (250 mg/kg F, end of recovery) was “+0.7%”. For the same molecule, the GGT (250 mg/kg F, end of recovery) was 0.58* IU/L, the “Liver weight (absolute), percent difference from controls” value (250 mg/kg F, end of recovery) was “+19.6%” and the “Spleen weight (absolute), percent difference from controls” value (250 mg/kg F, end of recovery) was “+82.7* %”. For the same molecule, the “Adrenal Gland Vacuolation” value [2] was 5, the “Adrenal Gland Vacuolation, Marked” value [2] was 1 and the “Adrenal Gland Vacuolation, Mild” value [2] was 0. The “Adrenal Gland Vacuolation, Minimal” value [2] was 0, the “Adrenal Gland Vacuolation, Moderate” value [2] was 4 and the “Gross Pathology: Enlarged Spleen” value [2] was 2. The “Gross Pathology: Pale Iliac Lymph Node” value [2] was 4, the “Gross Pathology: Pale Liver” value [2] was 5 and the “Gross Pathology: Pale Ovaries” value [2] was 4. The “Gross Pathology: Pale Pancreatic Lymph Node” value [2] was 3, the “Liver Focal Necrosis” value [2] was 1 and the “Liver Focal Necrosis, Mild” value [2] was 1. The “Liver Focal Necrosis, Minimal” value [2] was 0, the “Liver Histiocytic Infiltration” value [2] was 5 and the “Liver Histiocytic Infiltration, Mild” value [2] was 1. The “Liver Histiocytic Infiltration, Minimal” value [2] was 0, the “Liver Histiocytic Infiltration, Moderate” value [2] was 4 and the “Liver Multifocal Necrosis” value [2] was 1. For the same molecule, the “Liver Multifocal Necrosis, Mild” value [2] was 0, the “Liver Multifocal Necrosis, Moderate” value [2] was 1 and the “Liver Vacuolation” value [2] was 5. For the same molecule, the “Liver Vacuolation, Mild” value [2] was 0, the “Liver Vacuolation, Minimal” value [2] was 0 and the “Liver Vacuolation, Moderate” value [2] was 5. The “Lymph Node, Man. Histiocytic Infiltration” value [2] was 5, the “Lymph Node, Man. Histiocytic Infiltration, Mild” value [2] was 3 and the “Lymph Node, Man. Histiocytic Infiltration, Minimal” value [2] was 1. The “Lymph Node, Man. Histiocytic Infiltration, Moderate” value [2] was 1, the “Lymph Node, Mes. Histiocytic Infiltration” value [2] was 5 and the “Lymph Node, Mes. Histiocytic Infiltration, Mild” value [2] was 5. For the same molecule, the “Lymph Node, Mes. Histiocytic Infiltration, Minimal” value [2] was 0, the “Ovary Histiocytic Infiltration” value [2] was 5 and the “Ovary Histiocytic Infiltration, Mild” value [2] was 4. The “Ovary Histiocytic Infiltration, Minimal” value [2] was 0, the “Ovary Histiocytic Infiltration, Moderate” value [2] was 1 and the “Spleen Histiocytic Infiltration” value [2] was 5. For the same molecule, the “Spleen Histiocytic Infiltration, Marked” value [2] was 0, the “Spleen Histiocytic Infiltration, Mild” value [2] was 4 and the “Spleen Histiocytic Infiltration, Minimal” value [2] was 1. For the same molecule, the “Spleen Histiocytic Infiltration, Moderate” value [2] was 0, the “Died or Sacrificed Moribund” value (250 mg/kg M, animals of 15) was 0 and the ALT (250 mg/kg M, end of dosing) was 35* IU/L. The APPT (250 mg/kg M, end of dosing) was 14.7* seconds, the AST (250 mg/kg M, end of dosing) was 113* IU/L and the “Body Weight, percent difference” value (250 mg/kg M, end of dosing) was −17.6* %. For the same molecule, the Eosinophils (250 mg/kg M, end of dosing) was 0.14* 10^3/cmm, the Erythrocytes (250 mg/kg M, end of dosing) was 6.23 10^6/cmm and the “Food Consumption, percent difference from controls” value (250 mg/kg M, end of dosing) was −16.4* %. For the same molecule, the GGT (250 mg/kg M, end of dosing) was 0.16 IU/L, the Hematocrit (250 mg/kg M, end of dosing) was 40.4* % and the Hemoglobin (250 mg/kg M, end of dosing) was 12.9* g/dL. The Leukocytes (250 mg/kg M, end of dosing) was 15.55* 10^3/cmm, the “Liver weight (absolute), percent difference from controls” value (250 mg/kg M, end of dosing) was “+11.0%” and the Lymphocytes (250 mg/kg M, end of dosing) was 12.58 10^3/cmm. The Neutrophils (250 mg/kg M, end of dosing) was 2.13* 10^3/cmm, the “Spleen weight (absolute), percent difference from controls” value (250 mg/kg M, end of dosing) was “+65.9%” and the “Adrenal Gland Vacuolation” value [3] was 10. The “Adrenal Gland Vacuolation, Mild” value [3] was 5, the “Adrenal Gland Vacuolation, Minimal” value [3] was 0 and the “Adrenal Gland Vacuolation, Moderate” value [3] was 5. The “Bone Marrow, Sternum Hyperplasia” value [3] was 4, the “Bone Marrow, Sternum Hyperplasia, Mild” value [3] was 4 and the “Bone Marrow, Sternum Hyperplasia, Minimal” value [3] was 0. For the same molecule, the “Gross Pathology: Enlarged Pancreatic Lymph Nodes” value [3] was 5, the “Gross Pathology: Pale Adrenal” value [3] was 4 and the “Gross Pathology: Pale Liver” value [3] was 10. For the same molecule, the “Gross Pathology: Pale Lymph Nodes” value [3] was 8, the “Gross Pathology: Pale Pituitary” value [3] was 3 and the “Gross Pathology: Pale SQ Skin” value [3] was 0. The “Injection Site Mononuclear Cell Infiltration” value [3] was 10, the “Injection Site Mononuclear Cell Infiltration, Marked” value [3] was 1 and the “Injection Site Mononuclear Cell Infiltration, Mild” value [3] was 0. The “Injection Site Mononuclear Cell Infiltration, Minimal” value [3] was 0, the “Injection Site Mononuclear Cell Infiltration, Moderate” value [3] was 9 and the “Liver Focal Necrosis” value [3] was 0. The “Liver Focal Necrosis, Minimal” value [3] was 0, the “Liver Histiocytic Infiltration” value [3] was 10 and the “Liver Histiocytic Infiltration, Mild” value [3] was 7. The “Liver Histiocytic Infiltration, Minimal” value [3] was 1, the “Liver Histiocytic Infiltration, Moderate” value [3] was 2 and the “Liver Vacuolation” value [3] was 10. The “Liver Vacuolation, Mild” value [3] was 10, the “Liver Vacuolation, Minimal” value [3] was 0 and the “Lymph Node, Man. Histiocytic Infiltration” value [3] was 9. For the same molecule, the “Lymph Node, Man. Histiocytic Infiltration, Mild” value [3] was 3, the “Lymph Node, Man. Histiocytic Infiltration, Minimal” value [3] was 0 and the “Lymph Node, Man. Histiocytic Infiltration, Moderate” value [3] was 6. For the same molecule, the “Lymph Node, Mes. Histiocytic Infiltration” value [3] was 9, the “Lymph Node, Mes. Histiocytic Infiltration, Mild” value [3] was 7 and the “Lymph Node, Mes. Histiocytic Infiltration, Minimal” value [3] was 1. For the same molecule, the “Lymph Node, Mes. Histiocytic Infiltration, Moderate” value [3] was 1, the “Skin, Dermis Histiocytic Infiltration” value [3] was 0 and the “Skin, Dermis Histiocytic Infiltration, Marked” value [3] was 0. For the same molecule, the “Skin, Dermis Histiocytic Infiltration, Mild” value [3] was 0, the “Skin, Dermis Histiocytic Infiltration, Moderate” value [3] was 0 and the “Skin, SQ Histiocytic Infiltration” value [3] was 0. The “Skin, SQ Histiocytic Infiltration, Mild” value [3] was 0, the “Spleen Histiocytic Infiltration” value [3] was 10 and the “Spleen Histiocytic Infiltration, Marked” value [3] was 1. For the same molecule, the “Spleen Histiocytic Infiltration, Mild” value [3] was 0, the “Spleen Histiocytic Infiltration, Moderate” value [3] was 9 and the ALT (250 mg/kg M, end of recovery) was 96* IU/L. The APPT (250 mg/kg M, end of recovery) was 15.3* seconds, the AST (250 mg/kg M, end of recovery) was 213* IU/L and the “Body Weight, percent difference” value (250 mg/kg M, end of recovery) was −15.0* %. For the same molecule, the “Food Consumption, percent difference from controls” value (250 mg/kg M, end of recovery) was −14.1%, the GGT (250 mg/kg M, end of recovery) was 0.42 IU/L and the “Liver weight (absolute), percent difference from controls” value (250 mg/kg M, end of recovery) was “+7.6%”. For the same molecule, the “Spleen weight (absolute), percent difference from controls” value (250 mg/kg M, end of recovery) was “+38.7* %”, the “Adrenal Gland Vacuolation” value [4] was 4 and the “Adrenal Gland Vacuolation, Marked” value [4] was 0. The “Adrenal Gland Vacuolation, Mild” value [4] was 2, the “Adrenal Gland Vacuolation, Minimal” value [4] was 0 and the “Adrenal Gland Vacuolation, Moderate” value [4] was 2. For the same molecule, the “Gross Pathology: Enlarged Spleen” value [4] was 4, the “Gross Pathology: Pale Iliac Lymph Node” value [4] was 3 and the “Gross Pathology: Pale Liver” value [4] was 5. For the same molecule, the “Gross Pathology: Pale Pancreatic Lymph Node” value [4] was 3, the “Liver Focal Necrosis” value [4] was 2 and the “Liver Focal Necrosis, Mild” value [4] was 1. For the same molecule, the “Liver Focal Necrosis, Minimal” value [4] was 0, the “Liver Histiocytic Infiltration” value [4] was 5 and the “Liver Histiocytic Infiltration, Mild” value [4] was 4. For the same molecule, the “Liver Histiocytic Infiltration, Minimal” value [4] was 1, the “Liver Histiocytic Infiltration, Moderate” value [4] was 0 and the “Liver Multifocal Necrosis” value [4] was 1. For the same molecule, the “Liver Multifocal Necrosis, Mild” value [4] was 1, the “Liver Multifocal Necrosis, Moderate” value [4] was 0 and the “Liver Vacuolation” value [4] was 5. For the same molecule, the “Liver Vacuolation, Mild” value [4] was 0, the “Liver Vacuolation, Minimal” value [4] was 0 and the “Liver Vacuolation, Moderate” value [4] was 5. For the same molecule, the “Lymph Node, Man. Histiocytic Infiltration” value [4] was 5, the “Lymph Node, Man. Histiocytic Infiltration, Mild” value [4] was 1 and the “Lymph Node, Man. Histiocytic Infiltration, Minimal” value [4] was 2. The “Lymph Node, Man. Histiocytic Infiltration, Moderate” value [4] was 2, the “Lymph Node, Mes. Histiocytic Infiltration” value [4] was 5 and the “Lymph Node, Mes. Histiocytic Infiltration, Mild” value [4] was 5. The “Lymph Node, Mes. Histiocytic Infiltration, Minimal” value [4] was 0, the “Spleen Histiocytic Infiltration” value [4] was 5 and the “Spleen Histiocytic Infiltration, Marked” value [4] was 1. The “Spleen Histiocytic Infiltration, Mild” value [4] was 3, the “Spleen Histiocytic Infiltration, Minimal” value [4] was 0 and the “Spleen Histiocytic Infiltration, Moderate” value [4] was 1.
